The source of these data is paper PMC9636582 (The Journal of Biological Chemistry, 2022).

Type in all cases: cell-based
Assay [1] deals with T1, VP16-PPARα / GAL4-SRC-1 (Homo sapiens, UniProt Q07869).
T1 construct: expressed in transfected cells; host or cells: HEK293
T1 sequence (Q07869 1-468): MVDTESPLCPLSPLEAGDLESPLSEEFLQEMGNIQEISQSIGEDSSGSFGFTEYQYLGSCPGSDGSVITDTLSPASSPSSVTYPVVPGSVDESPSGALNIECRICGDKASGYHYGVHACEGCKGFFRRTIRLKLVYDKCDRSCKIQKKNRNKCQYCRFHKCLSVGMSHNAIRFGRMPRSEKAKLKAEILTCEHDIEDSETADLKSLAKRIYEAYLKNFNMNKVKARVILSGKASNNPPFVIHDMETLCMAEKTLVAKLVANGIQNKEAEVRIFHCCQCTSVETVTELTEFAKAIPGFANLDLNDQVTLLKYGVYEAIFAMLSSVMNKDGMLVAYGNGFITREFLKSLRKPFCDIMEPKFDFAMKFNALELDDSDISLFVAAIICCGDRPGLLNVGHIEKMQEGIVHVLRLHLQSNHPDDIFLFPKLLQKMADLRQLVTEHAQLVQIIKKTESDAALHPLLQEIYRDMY
T1 sequence (Q15788 595-771 partner limits assumed): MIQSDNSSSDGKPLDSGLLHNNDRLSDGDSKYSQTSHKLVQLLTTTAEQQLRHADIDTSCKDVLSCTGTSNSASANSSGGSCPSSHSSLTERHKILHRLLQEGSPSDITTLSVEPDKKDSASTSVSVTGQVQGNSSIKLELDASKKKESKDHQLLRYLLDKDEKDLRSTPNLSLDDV
Kind of assay: mammalian two-hybrid assay, VP16-PPARα and coactivator GAL4-SRC-1. The conditions noted are these: 30 μM fatty acids, 1 μM GW7647, HEK293 cells, Fig. 3B.

For assay [2], the target named is T2, GAL4-PPARδ LBD (Homo sapiens, UniProt Q03181).
T2 construct: chimeric receptors containing the LBD of various NRs; expressed in transfected cells; host or cells: HEK293
T2 sequence (Q03181 211-439 limits assumed): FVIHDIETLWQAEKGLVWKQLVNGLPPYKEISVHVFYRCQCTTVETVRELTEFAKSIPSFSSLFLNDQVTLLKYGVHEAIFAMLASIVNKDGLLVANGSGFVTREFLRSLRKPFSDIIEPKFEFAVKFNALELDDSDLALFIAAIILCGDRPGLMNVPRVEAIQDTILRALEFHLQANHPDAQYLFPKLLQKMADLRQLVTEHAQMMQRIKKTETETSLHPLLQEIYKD
Kind of assay: GAL4-PPARδ LBD luciferase reporter assay in HEK293 cells. As to conditions: for EC50: GAL4-PPARδ LBD, calculated from luciferase activity with Quest Graph EC50 Calculator; for PPARδ activation compared with dietary PUFAs (in words): 30 μM fatty acids, Fig. 2A; for PPARδ activation (in words): 100 μM fatty acids, Fig. 1B.

For assay [3], the target named is T3, full-length PPARδ (Homo sapiens, UniProt Q03181).
T3 construct: expressed in transfected cells; host or cells: HEK293
T3 sequence (Q03181 1-441): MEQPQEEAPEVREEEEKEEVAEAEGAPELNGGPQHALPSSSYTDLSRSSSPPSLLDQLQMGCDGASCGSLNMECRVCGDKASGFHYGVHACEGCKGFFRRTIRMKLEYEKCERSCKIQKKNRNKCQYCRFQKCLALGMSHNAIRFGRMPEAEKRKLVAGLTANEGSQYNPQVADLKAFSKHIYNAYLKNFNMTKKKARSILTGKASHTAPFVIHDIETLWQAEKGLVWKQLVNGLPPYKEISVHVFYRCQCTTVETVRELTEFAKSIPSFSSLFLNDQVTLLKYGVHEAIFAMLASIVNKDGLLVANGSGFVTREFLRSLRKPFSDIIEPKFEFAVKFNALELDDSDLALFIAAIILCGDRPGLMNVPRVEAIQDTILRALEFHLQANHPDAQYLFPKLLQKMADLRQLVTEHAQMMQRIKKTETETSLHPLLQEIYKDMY
As to the kind of experiment: full-length PPARδ PPRE luciferase reporter assay in HEK293 cells. As to conditions: Fig. 1C. The text has this:
Luciferase activities were normalized to β-galactosidase activities.
On the technique in general: In a reporter assay the amount or activity of a reporter protein is the signal.

The term EC50 denotes the concentration needed to bring the measured effect to its halfway point. For `CCCCC/C=C\C/C=C\C/C=C\CCCCC(=O)O` [GLA, γ-linolenic acid, reference compound], in assay [1], the “recruitment of coactivator SRC-1 to PPARα” value (“recruitment” for short) is “not”. In addition, the EC50 in assay [2] is 509 µM. In assay [3], the “transactivation of full-length PPARδ (in words)” value is given as “not”.

For `CCCCCC(O)CCC=CCC=CCCCCC(=O)O` (stereo not drawn) [γHYD, 13-hydroxy-cis-6,cis-9-octadecadienoic acid], in assay [1], the “recruitment” value is recorded as “induced coactivator-recruitment”. In addition, in assay [2], the “PPARδ activation compared with dietary PUFAs (in words)” value is “activated PPARδ more robustly than DHA and eicosapentaenoic acid as well as GLA”; the “PPARδ activation (in words)” value is “more robust PPARδ activation than their original compound, GLA”; the EC50 is 10.6 µM. Also, the “transactivation of full-length PPARδ (in words)” value in assay [3] is given as “activated PPARδ potently”.

`CCCCCC(=O)CCC=CCC=CCCCCC(=O)O` [γKetoD, 13-oxo-cis-6,cis-9-octadecadienoic acid]: in assay [1], the “recruitment” value is “induced coactivator-recruitment”. Besides, in assay [2], the “PPARδ activation compared with dietary PUFAs (in words)” value was “activated PPARδ more robustly than DHA and eicosapentaenoic acid as well as GLA”; the “PPARδ activation (in words)” value is listed as “more robust PPARδ activation than their original compound, GLA”; the EC50 was 20.3 µM. The “transactivation of full-length PPARδ (in words)” value in assay [3] is “activated PPARδ potently”.
